Consider 3 compounds from patent US20130065885A1, “ORAL THERAPEUTIC COMPOUND DELIVERY SYSTEM” (IMAGINOT PTY LTD., priority 2004, published 2013).

Structures can show the parent of a compound that is named as a salt. Where two headings read alike, the source gives them in different places.

One data set can be described thus: physchem. As to conditions: water.
The conditions of data set [1]: cited from earlier work.

Consider `COc1cccc(C2(O)CCCCC2CN(C)C)c1` (stereo not drawn) [tramadol hydrochloride], for which the “Volume of water to dissolve dose” value was found to be 1.3 mL and the “volume needed for total dissolution of the dose” value was “around 1 mL”. Also, the solubility in “physchem” worked out at 30 mg/mL. Also, the solubility in water entry in data set [1] was “around 30 mg/mL”.
As to `CN1CCC[C@@H]1Cc1c[nH]c2ccc(CCS(=O)(=O)c3ccccc3)cc12` [Eletriptan hydrobromide], the “Volume of water to dissolve dose” value (dose as in the Dose (mg) column) was 4 mL.
Consider `CC(=O)Nc1ccc(O)cc1` [paracetamol], for which the “volume needed for total dissolution of the dose” value (weight for weight basis, dose in the paracetamol/tramadol hydrochloride tablet) is reported as “around 27 mL”.
